Consider 42 molecules from patent US20130029981A1, “COMPOUNDS, COMPOSITIONS, AND METHODS FOR CONTROLLING BIOFILMS” (Katholieke Universiteit Leuven, priority 2009, published 2013).

One test concerns S. Typhimurium ATCC14028. Description: Static peg assay for prevention of biofilm formation (Calgary device, crystal violet). Conditions: 25° C., 24 hours, Table 15; read-out: (1) IC50 (biofilm inhibition). In kind it is cell-based, Salmonella Typhimurium. As for the experimental part:
(§1) Evaluation of the biofilm inhibitory activity of some substituted 2-amino-1H-imidazoles of the invention was carried out by growing up biofilms of S. Typhimurium ATCC14028 or SL1344 or Pseudomonas aeruginosa PA14 in the presence of different concentrations (1/2 dilution series) of biofilm inhibitors, by using the Calgary biofilm device. After an incubation period of 24 hours at 25° C. or 37° C. or 48 hours at 16° C. the biofilms were visualized by crystal violet staining. In the next step the stain was extracted from the biofilm with 30% acetic acid. The absorbance of the resolubilized stain at 570 nm is a measure of the amount of biofilm formed.
In examples 2 and 3, the following materials and methods were used.
The device used for biofilm formation is a platform carrying 96 polystyrene pegs (Nunc no. 445497) that fits as a microtiter plate lid with a peg hanging into each microtiter plate well (Nunc no. 269789). Biofilm formation assays were carried out at 16° C., 25° C. and 37° C.
For biofilm assays at 16° C. and 25° C., two-fold serial dilutions of the compounds in 100 μl liquid TSB 1/20 broth per well were prepared in the microtiter plate. Subsequently, an overnight culture of S. Typhimurium ATCC14028 or SL1344 (grown up in LB medium) was diluted 1:100 into TSB 1/20 broth and 100 μl (ca. 10^6 cells) was added to each well of the microtiter plates, resulting in a total amount of 200 μl medium per well. The pegged lid was placed on the microtiter plate and the plate was incubated for 48 hours at 16° C. or for 24 hours at 25° C. without shaking. During this incubation period biofilms were formed on the surface of the pegs. In case of the assay at 16° C., after 24 hours the lid was transferred into a new plate with medium and the specific molecules used for testing. […] For quantification of biofilm formation, the pegs were washed once in 200 μl phosphate buffered saline (PBS). The remaining attached bacteria were stained for 30 minutes with 200 μl 0.1% (w/v) crystal violet in an isopropanol/methanol/PBS solution (v/v 1:1:18). Excess stain was rinsed off by placing the pegs in a 96-well plate filled with 200 μl distilled water per well. After the pegs were air dried (30 min), the dye bound to the adherent cells was extracted with 30% glacial acetic acid (200 μl). The OD570 of each well was measured using the VERSAmax microtiter plate reader. The IC50 value for each compound was determined from concentration gradients in two or three independent experiments (with 2 or 3 repeats per experiment), by using the GraphPad software of Prism.
For biofilm assays at 37° C., two-fold serial dilutions of the compounds in 50 μl liquid CFA broth per well were prepared in the microtiter plate. Subsequently, an overnight culture of S. Typhimurium ATCC 14028 was diluted 1:100 into CFA broth and 100 μl (ca. 10^6 cells) was added to each well of the microtiter plates, resulting in a total amount of 150 μl medium per well. The pegged lid was placed on the microtiter plate and the plate was incubated for 24 hours at 37° C. without shaking. During incubation the plates were placed in a humidity controlled container to prevent evaporation of the growth medium. Quantification of biofilm formation was performed similarly as described above for the assays at 16° C. and 25° C.
as §1, with “imidazo[1,2-a]pyrimidinium bromide salts” for “2-amino-1H-imidazoles”
Take `CCCCCCCCCCN1c2nccc[n+]2CC1(O)c1ccc(-c2ccc(-c3ccc([N+](=O)[O-])cc3)cc2)cc1` (racemic): the IC50 was determined as 525 µM.

As to `CCCCCCCCCCN1c2nccc[n+]2CC1(O)c1ccc(-c2ccc([N+](=O)[O-])cc2)cc1` (centres unmarked) [1-decyl-2-hydroxy-2-(4′-nitro[1,1′-biphenylyl]-4-yl)-2,3-dihydro-1H-imidazo[1,2-a]pyrimidin-4-ium bromide], the IC50 turned out to be 200 µM.

For `CCCCCCCCCCN1c2nccc[n+]2CC1(O)c1ccc(F)cc1` (centres unmarked) [Compound 40], the IC50 came out at 20 µM.

`CCCCCCCCCCN1c2nccc[n+]2CC1(O)c1ccc(Cl)c(Cl)c1` (centres unmarked) [Compound 50]: the IC50 was 32.4 µM.

Staying with this test, now noted: 25° C., Table 11; read-out: IC50 (biofilm formation).
In the case of `COc1cccc(CCN2c3nccc[n+]3CC2(O)c2ccc([N+](=O)[O-])cc2)c1` (centres unmarked) [Compound 75], the IC50 is 124 µM.

As for `CCCCN1c2nccc[n+]2CC1(O)c1ccc(Br)cc1` (centres unmarked) [Compound 41], the IC50 stood at 64.9 µM.

On to `O=[N+]([O-])c1ccc(C2(O)C[n+]3cccnc3N2Cc2ccccc2)cc1` (centres unmarked) [Compound 72], for which the IC50 is 222 µM.

Still in this test, the particulars now being: 25° C., Table 14; read-out: IC50 biofilm inhibition.
For `COc1cccc(CCN2c3nccc[n+]3CC2(O)c2ccc([N+](=O)[O-])cc2)c1` (centres unmarked) [Compound 75], the IC50 was 124 µM.

Take `CCCCN1c2nccc[n+]2CC1(O)c1ccc(Br)cc1` (centres unmarked) [Compound 41]: the IC50 turned out to be 64.9 µM.

For the molecule `O=[N+]([O-])c1ccc(C2(O)C[n+]3cccnc3N2Cc2ccccc2)cc1` (centres unmarked) [Compound 72], the IC50 was 222 µM.

The same test, now with this note: 25° C., Table 16; read-out: S. Typhimurium IC50 (biofilm formation).
As to `CN1c2nccc[n+]2CC1(O)c1ccc([N+](=O)[O-])cc1` (racemic) [Compound 28], the IC50 amounted to 698 µM.

`CN1c2nccc[n+]2CC1(O)c1ccc(F)cc1` (centres unmarked) [Compound 37]: the IC50 was over 800 µM.

On to `CCCCCCCCCCN1c2nccc[n+]2CC1(O)c1ccc(F)cc1` (centres unmarked) [Compound 40], for which the IC50 is 20 µM.

On to `CCCCCCCCCCN1c2nccc[n+]2CC1(O)c1ccc(Cl)c(Cl)c1` (centres unmarked) [Compound 50], for which the IC50 worked out at 32.4 µM.

Regarding `CCCCN1c2nccc[n+]2CC1(O)c1ccc(OC)cc1` (centres unmarked) [Compound 45], the IC50 was found to be 314 µM.

On to `CC(C)CN1c2nccc[n+]2CC1(O)c1ccc(Br)cc1` (centres unmarked) [Compound 42], for which the IC50 is 5.2 µM.

With `CCCCN1c2nccc[n+]2CC1(O)c1ccc(Br)cc1` (centres unmarked) [Compound 41], the IC50 worked out at 90.1 µM.

For the molecule `CCCCCN1c2nccc[n+]2CC1(O)c1ccc(Br)cc1` (centres unmarked) [Compound 43], the IC50 amounted to 1.7 µM.

Regarding `CN1c2nccc[n+]2CC1(O)c1ccc(Cl)cc1` (racemic) [Compound 15], the IC50 turned out to be 225 µM.

The test is the same for the next values; noted with them: 25° C., Table 19; read-out: IC50 (biofilm formation).
Take `COc1cccc(CCN2c3nccc[n+]3CC2(O)c2ccc(F)cc2)c1` (centres unmarked) [Compound 76]: the IC50 was determined as 105 µM.

Consider `COc1cccc(CCN2c3nccc[n+]3CC2(O)c2ccc([N+](=O)[O-])cc2)c1` (centres unmarked) [Compound 75], for which the IC50 is 124 µM.

Consider `O=[N+]([O-])c1ccc(C2(O)C[n+]3cccnc3N2Cc2ccccc2)cc1` (centres unmarked) [Compound 72], for which the IC50 was 174 µM.

Staying with this test, now noted: 25° C.; strain not given; read-out: IC(50), preventive activity against S. typhimurium biofilms.
Turning to `CCCc1cn(CCCNc2ncc(-c3ccc(Cl)c(Cl)c3)[nH]2)nn1` [R3=3,4-diClPh; R4=H; R9=propyl; n=3], the IC50 was found to be 31.8 µM.

With `CC(C)(C)c1cn(CCNc2ncc(C(c3ccccc3)c3ccccc3)[nH]2)nn1` [R3=CHPh2; R4=H; R9=t-Butyl; n=2], the IC50 turned out to be 30.9 µM.

For `Fc1ccc(-c2cnc(NCCn3cc(C4CCCC4)nn3)[nH]2)cc1` [R3=4-FPh; R4=H; R9=c-pentyl; n=2], the IC50 turned out to be 128 µM.

Turning to `c1ccc(-c2cn(CCNc3ncc(-c4ccccc4)[nH]3)nn2)cc1` [R3=Ph; R4=H; R9=Phenyl; n=2], the IC50 is 36.5 µM.

For the molecule `CC(C)(C)c1ccc(-c2cn(CCCNc3ncc(-c4ccc(Cl)c(Cl)c4)[nH]3)nn2)cc1` [R3=3,4-diClPh; R4=H; R9=p(t-Bu)Ph; n=3], the IC50 amounted to 17.8 µM.

Regarding `COc1ccc(-c2cn(CCNc3ncc(-c4ccc(Br)cc4)[nH]3)nn2)cc1` [R3=4-BrPh; R4=H; R9=pMeOPh; n=2], the IC50 worked out at 91.2 µM.

With `Cc1ccc(-c2nc(NCCn3cc(C4CCCC4)nn3)[nH]c2-c2ccc(Cl)cc2)cc1` [R3=p-ClPh; R4=p-MePh; R9=c-Pentyl; n=2], the IC50 came to 6.5 µM.

On to `CCCc1cn(CCNc2ncc(-c3ccc(Cl)c(Cl)c3)[nH]2)nn1` [R3=3,4-diClPh; R4=H; R9=propyl; n=2], for which the IC50 is 35.6 µM.

Regarding `CCCc1cn(CCCNc2ncc(-c3ccc(Br)cc3)[nH]2)nn1` [R3=4-BrPh; R4=H; R9=propyl; n=3], the IC50 came out at 35.3 µM.

Consider `CCCCCCCc1cn(CCNc2ncc(-c3ccc(Br)cc3)[nH]2)nn1` [R3=4-BrPh; R4=H; R9=heptyl; n=2], for which the IC50 stood at 189 µM.

Turning to `Fc1ccc(-c2cnc(NCCn3cc(C4CC4)nn3)[nH]2)cc1` [R3=4-FPh; R4=H; R9=c-propyl; n=2], the IC50 was 93.3 µM.

In the case of `Brc1ccc(-c2cnc(NCCn3cc(C4CCCCC4)nn3)[nH]2)cc1` [R3=4-BrPh; R4=H; R9=c-hexyl; n=2], the IC50 is 8.4 µM.

`COc1ccc(-c2cn(CCNc3ncc(-c4ccc(Cl)c(Cl)c4)[nH]3)nn2)cc1` [R3=3,4-diClPh; R4=H; R9=p-MeOPh; n=2]: the IC50 was over 800 µM.

As for `Clc1ccc(-c2cnc(NCCCn3cc(C4CCCCC4)nn3)[nH]2)cc1Cl` [R3=3,4-diClPh; R4=H; R9=c-hexyl; n=3], the IC50 turned out to be 26.8 µM.

As to `Clc1ccc(-c2cnc(NCCn3cc(C4CCCCC4)nn3)[nH]2)cc1Cl` [R3=3,4-diClPh; R4=H; R9=c-hexyl; n=2], the IC50 was found to be 55.2 µM.

Take `c1ccc(-c2cn(CCCNc3ncc(-c4ccccc4)[nH]3)nn2)cc1` [R3=Ph; R4=H; R9=phenyl; n=3]: the IC50 worked out at 40 µM.

Still in this test, the particulars now being: S. Typhimurium ATCC 14028, 25° C.; read-out: IC50 for biofilm inhibition (25° C.).
Consider `Cc1ccc(-c2c[nH]c(NC(C)C)n2)cc1` [R1=H, R2=i-Propyl, R3=H, R4=p-Me—Ph], for which the IC50 was 99 µM.

Consider `CCCCNc1nc(-c2ccc(OC)cc2)c[nH]1` [R1=H, R2=Butyl, R3=H, R4=p-MeO—Ph], for which the IC50 was 49 µM.

`CCCCNc1nc(-c2ccccc2)c[nH]1` [R1=H, R2=Butyl, R3=H, R4=Ph]: the IC50 is 25 µM.

For the molecule `CCCCNc1nc(-c2ccc(Br)cc2)c[nH]1` [R1=H, R2=Butyl, R3=H, R4=p-Br—Ph], the IC50 was 7 µM.

Turning to `O=[N+]([O-])c1ccc(-c2c[nH]c(NC3CCCC3)n2)cc1` [R1=H, R2=cyclopentyl, R3=H, R4=p-NO2—Ph], the IC50 was determined as 12 µM.

With `O=[N+]([O-])c1ccc(-c2c[nH]c(NC3CCCCC3)n2)cc1` [R1=H, R2=Cyclohexyl, R3=H, R4=p-NO2—Ph], the IC50 came to 44 µM.

The test is the same for the next values; noted with them: S. Typhimurium ATCC 14028, 25° C.; read-out: S. Typhimurium IC50 (biofilm formation).
Take `CCCCCCCCCNc1nc(-c2ccc(Cl)cc2)c[nH]1` [Compound 89]: the IC50 is over 800 µM.

Consider `CNc1ncc(-c2ccc(F)c(F)c2)[nH]1` [Compound 112], for which the IC50 came out at 602 µM.

Staying with this test, now noted: Salmonella enterica; 25° C., 24 hours, Table 15; read-out: (1) IC50 (biofilm inhibition).
As for `CCCCCCCCCCN1c2nccc[n+]2CC1(O)c1ccc(SC)cc1` (centres unmarked) [1-decyl-2-hydroxy-2-(4-methylthiophenyl)-2,3-dihydro-1H-imidazo[1,2-a]-pyrimidin-4-ium bromide], the IC50 was 45.7 µM.

For `CCCCCCCCCCN1c2nccc[n+]2CC1(O)c1cccc2ccccc12` (centres unmarked) [1-decyl-2-hydroxy-2-(1-naphthalenyl)-2,3-dihydro-1H-imidazo[1,2-a]pyrimidin-4-ium bromide], the IC50 came to 68.9 µM.

As for `CCCCCCCCCCN1c2nccc[n+]2CC1(O)c1cccc(Br)c1` (centres unmarked) [1-decyl-2-hydroxy-2-(3-bromophenyl)-2,3-dihydro-1H-imidazo[1,2-a]pyrimidin-4-ium bromide], the IC50 came out at 33.8 µM.

`CCCCCCCCCCN1c2nccc[n+]2CC1(O)c1ccc(S(C)(=O)=O)cc1` (centres unmarked) [1-decyl-2-hydroxy-2-(4-methylsulfonylphenyl)-2,3-dihydro-1H-imidazo[1,2-a]pyrimidin-4-ium bromide]: the IC50 stood at 21.9 µM.
